Reference: patent publication US9771430B2, “Method of treating a metabolic disorder induced by obesity in a subject in need thereof by administering MK2/3 inhibitors” (THE TRUSTEES OF COLUMBIA UNIVERSITY IN THE CITY OF NEW YORK, priority 2011, dated 2017)

System: CaMKII
Test: Hepatic CaMKII phosphorylation in mice
Format: in vivo, mouse
Method: FIGS. 1A-J. Glucagon and fasting activates hepatic CaMKII. FIG. 1A. CaMKII enzyme activity was assayed in triplicate wells of primary mouse HCs stimulated with 100 nM glucagon (Gluc) or vehicle control (Veh) for the indicated times (*P<0.05 and **P<0.01 vs. Veh; mean±S.E.M.). FIGS. 1B-1J. Extracts of HCs or liver were probed for phospho-CaMKII, total CaMKII, and β-actin by immunoblot assay. FIG. 1B. HCs were incubated with […] glucagon for the indicated times; FIG. 1C. Glucagon was added to HCs that were pre-treated for 1 h with vehicle control (Veh) or 5 μM BAPTA-AM; FIG. 1D. Glucagon was added to HCs that were pre-treated with 0.5 μM xestospongin (XesC) or to HCs from Ip3r1fl/fl mice transduced with adeno-LacZ control or adeno-Cre (bar graph=Ip3r1 mRNA levels); FIG. 1E. Glucagon was added to HCs that were pre-treated for 1 h with vehicle control (Veh) or 10 μM H89. FIG. 1F. […] FIGS. 1G-1J. In vivo experiments. In FIG. 1G, mice were treated for 30 min with 200 μg kg−1 body weight of glucagon i.p., and in FIG. 1H, mice were pre-treated with 10 pmol g−1 xestospongin C or vehicle control i.p. 4 days prior to glucagon treatment. In FIGS. 1I-1J, mice were fed ad libitum or fasted for 12 h, or fasted for 12 h and then re-fed for 4 h.
FIGS. 28A-G. (Related to FIGS. 1 and 22). FIG. 28A Mice were injected i.p. with the indicated doses of glucagon and sacrificed 15 min later. The livers were probed for phospho- and total CaMKII and β-actin by immunoblot. FIG. 28B Mice (n=5/group) were fed ad libitum or fasted for 12 h and then plasma was assayed for glucagon (*P=0.007; mean±S.E.M.). FIG. 28C Mice were injected i.p. with 10 pmol g^−1 xestospongin C (XesC) or vehicle control each day for 4 days and then fed ad libitum or fasted for 12 h. Liver phospho-CaMKII, total CaMKII, and β-actin levels were assayed by immunoblot. FIG. 28D Immunoblot of CaMKII in HCs transduced with adeno-LacZ vs. CA-CaMKII. FIG. 28E HCs were transduced with adeno-LacZ or KD-CaMKII. Cells were serum-depleted overnight and then assayed for CaMKII activity (*P<0.005; mean±S.E.M.). […]
(§1) Camk2g−/− mice were generated as described previously (Backs et al., 2010) and crossed onto the C57BL6/J background. […] Fasting blood glucose was measured in mice that were fasted for 12-14 h, with free access to water, using a glucose meter (One Touch Ultra, Lifescan). […] Blood glucose levels were measured over the following 2 h. […]
as §1, with “Camk2g^−/−” for “Camk2g−/−”, “background. ob/ob mice were obtained from Jackson Labs.” for “background.”

Row | Molecule | hepatic CaMKII phosphorylation (bolus of i.p. glucagon) | glucagon dose capable of phosphorylating CaMKII in the liver (as low as) (i.p.) [µg/kg] | glucagon-induced CaMKII phosphorylation in liver (i.p. xestospongin C 10 pmol g−1 for 4 days, then glucagon) | fasting-induced phosphorylation of CaMKII in liver (xestospongin C treatment of the mice, 12 h fast)
1 | glucagon: hormone used to stimulate hepatocytes and mice | induced | 1 | – | –
2 | C1CCC[C@H]2CCCN3CC[C@@H](CCCCCC[C@@H]4CCCN5CC[C@@H](CC1)O[C@@H]45)O[C@@H]23 [Xestospongin C] | – | – | markedly reduced | suppressed
